What was measured:
ECHCG (Barnyardgrass) = experiment: Postemergence herbicidal evaluation; format: in vivo, Echinochloa crus-galli; conditions: postemergence
In short: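 ~2-wk seedlings; postemergence spray, 40 psi; vehicle 1:1 acetone:water + 0.5% Tween 20; rate ≈0.0156–0.500 kg/ha; greenhouse hold; scored 4–5 wk after treatment, 0–9 scale vs control; repeat tests averaged.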

ORYSAT (Rice, Tebonnet) = experiment: Preemergence herbicidal evaluation; format: in vivo, Oryza sativa, (L.) Tebonnet; conditions: rated 4-5 weeks after treatment
In short: (§1)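 Scores (0–9) reflect visual comparison with control plants for stand, vigor, malformation, size and chlorosis. Compound was applied to the soil after sowing, before emergence, as an aqueous acetone spray (about 0.0156–0.500 kg/ha), and cups were kept in a greenhouse for 4–5 weeks.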

[1] = test system: ECHORC (Watergrass (Calif.)); experiment: Preemergence weed control under flooded paddy conditions; format: in vivo, Echinochloa oryzoides; conditions: rated 3-4 weeks after treatment
In short: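 Seeds or propagules sown in silt loam kept flooded 1.5-3 cm; compounds in 50/50 acetone/water pipetted into flood water at about 0.0313 to 0.500 kg/ha. Greenhouse; visual 0-9 rating versus untreated control 3-4 weeks after treatment.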

CYPSE (Flatsedge) = experiment: as above; format: in vivo, Cyperus serotinus; conditions: rated 3-4 weeks after treatment
In short: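 Silt loam, seeds in top 0.5 cm; flood held 1.5-3 cm; test cpd as acetone/water 50/50 into flood water, ~0.0313-0.500 kg/ha a.i.; greenhouse 3-4 wk; visual 0-9 score vs control.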

[2] = test system: CHEAL (Lambsquarters, Common); experiment: Preemergence herbicidal evaluation; format: in vivo, Chenopodium album; conditions: rated 4-5 weeks after treatment
In short: as §1

[3] = rate 0.0313 kg/ha, rating scale 0-9
[4] = rate 0.0625 kg/ha, rating scale 0-9
[5] = rate 0.1250 kg/ha, rating scale 0-9
[6] = rate 0.2500 kg/ha, rating scale 0-9
[7] = rate 0.0156 kg/ha, rating scale 0-9

Cn1c(C(F)(F)F)cc(=O)n(-c2cc(N=C3SCC(=O)N3C3CCC3)c(Cl)cc2F)c1=O [Compound 168, 3-{4-Chloro-5-[(3-cyclobutyl-4-oxo-2-thiazolidinylidene)amino]-2-fluorophenyl}-1-methyl-6-(trifluoromethyl)-2,4(1H,3H)-pyrimidinedione]
Herbicidal rating ECHCG (ECHCG (Barnyardgrass); rate 0.0156 kg/ha): 0.0 | Herbicidal rating ECHCG (ECHCG (Barnyardgrass); rate 0.0313 kg/ha): 0.0 | Herbicidal rating ECHCG (ECHCG (Barnyardgrass); rate 0.0625 kg/ha): 4.0 | Preemergence herbicidal rating ORYSAT (ORYSAT (Rice, Tebonnet); 0.0156 kg/ha): 0.0 | Preemergence herbicidal rating ORYSAT (ORYSAT (Rice, Tebonnet); 0.0313 kg/ha): 0.0 | Preemergence herbicidal rating ORYSAT (ORYSAT (Rice, Tebonnet); 0.0625 kg/ha): 0.0 | Preemergence herbicidal rating ORYSAT (ORYSAT (Rice, Tebonnet); 0.1250 kg/ha): 0.0 | Preemergence herbicidal rating ORYSAT (ORYSAT (Rice, Tebonnet); 0.2500 kg/ha): 0.0 | herbicidal effect rating, ECHORC ([1]; 0.0313 kg/ha): 0.0 | herbicidal effect rating, ECHORC ([1]; 0.0625 kg/ha): 0.0 | herbicidal effect rating, ECHORC ([1]; 0.1250 kg/ha): 0.0 | herbicidal effect rating, ECHORC ([1]; 0.2500 kg/ha): 0.0 | herbicidal effect rating, CYPSE (CYPSE (Flatsedge); 0.0313 kg/ha): 0.0 | herbicidal effect rating, CYPSE (CYPSE (Flatsedge); 0.0625 kg/ha): 0.0 | herbicidal effect rating, CYPSE (CYPSE (Flatsedge); 0.1250 kg/ha): 0.0 | Preemergence herbicidal rating CHEAL ([2]; 0.0156 kg/ha): 3.0 | Preemergence herbicidal rating CHEAL ([2]; 0.0313 kg/ha): 9.0 | Preemergence herbicidal rating CHEAL ([2]; 0.0625 kg/ha): 9.0 | Preemergence herbicidal rating CHEAL ([2]; 0.1250 kg/ha): 9.0 | Preemergence herbicidal rating CHEAL ([2]; 0.2500 kg/ha): 9.0

Cn1c(C(F)(F)F)cc(=O)n(-c2cc(N=C3SCC(=O)N3C3CCCC3)c(Cl)cc2F)c1=O [Compound 166, 3-{4-Chloro-5-[(3-cyclopentyl-4-oxo-2-thiazolidinylidene)amino]-2-fluorophenyl}-1-methyl-6-(trifluoromethyl)-2,4(1H,3H)-pyrimidinedione]
Herbicidal rating ECHCG (ECHCG (Barnyardgrass); rate 0.0156 kg/ha): 0.0 | Herbicidal rating ECHCG (ECHCG (Barnyardgrass); rate 0.0313 kg/ha): 0.0 | Herbicidal rating ECHCG (ECHCG (Barnyardgrass); rate 0.0625 kg/ha): 1.0 | Herbicidal rating ECHCG (ECHCG (Barnyardgrass); rate 0.1250 kg/ha): 2.0 | Preemergence herbicidal rating ORYSAT (ORYSAT (Rice, Tebonnet); 0.0156 kg/ha): 0.0 | Preemergence herbicidal rating ORYSAT (ORYSAT (Rice, Tebonnet); 0.0313 kg/ha): 0.0 | Preemergence herbicidal rating ORYSAT (ORYSAT (Rice, Tebonnet); 0.0625 kg/ha): 1.0 | Preemergence herbicidal rating ORYSAT (ORYSAT (Rice, Tebonnet); 0.1250 kg/ha): 1.0 | Preemergence herbicidal rating ORYSAT (ORYSAT (Rice, Tebonnet); 0.2500 kg/ha): 1.0 | Preemergence herbicidal rating ORYSAT (ORYSAT (Rice, Tebonnet); 0.5000 kg/ha): 5.0 | herbicidal effect rating, ECHORC ([1]; 0.0313 kg/ha): 2.0 | herbicidal effect rating, ECHORC ([1]; 0.0625 kg/ha): 2.0 | herbicidal effect rating, ECHORC ([1]; 0.1250 kg/ha): 2.0 | herbicidal effect rating, ECHORC ([1]; 0.2500 kg/ha): 4.0 | herbicidal effect rating, CYPSE (CYPSE (Flatsedge); 0.0313 kg/ha): 0.0 | herbicidal effect rating, CYPSE (CYPSE (Flatsedge); 0.0625 kg/ha): 0.0 | herbicidal effect rating, CYPSE (CYPSE (Flatsedge); 0.1250 kg/ha): 0.0 | herbicidal effect rating, CYPSE (CYPSE (Flatsedge); 0.2500 kg/ha): 0.0 | Preemergence herbicidal rating CHEAL ([2]; 0.0156 kg/ha): 1.0 | Preemergence herbicidal rating CHEAL ([2]; 0.0313 kg/ha): 0.0 | Preemergence herbicidal rating CHEAL ([2]; 0.0625 kg/ha): 3.0 | Preemergence herbicidal rating CHEAL ([2]; 0.1250 kg/ha): 9.0 | Preemergence herbicidal rating CHEAL ([2]; 0.2500 kg/ha): 9.0 | Preemergence herbicidal rating CHEAL ([2]; 0.5000 kg/ha): 9.0

Cn1c(C(F)(F)F)cc(=O)n(-c2cc(N=C3SCC(=O)N3Cc3ccccn3)c(Cl)cc2F)c1=O [Compound 131]
Herbicidal rating ECHCG (ECHCG (Barnyardgrass); rate 0.0156 kg/ha): 2.0 | Herbicidal rating ECHCG (ECHCG (Barnyardgrass); rate 0.0313 kg/ha): 2.0 | Herbicidal rating ECHCG (ECHCG (Barnyardgrass); rate 0.0625 kg/ha): 2.0 | Preemergence herbicidal rating ORYSAT (ORYSAT (Rice, Tebonnet); [3]): 0.0 | Preemergence herbicidal rating ORYSAT (ORYSAT (Rice, Tebonnet); [4]): 0.0 | Preemergence herbicidal rating ORYSAT (ORYSAT (Rice, Tebonnet); [5]): 0.0 | Preemergence herbicidal rating ORYSAT (ORYSAT (Rice, Tebonnet); [6]): 0.0 | herbicidal effect rating, ECHORC ([1]; 0.1250 kg/ha): 2.0 | herbicidal effect rating, ECHORC ([1]; 0.2500 kg/ha): 4.0 | herbicidal effect rating, CYPSE (CYPSE (Flatsedge); 0.1250 kg/ha): 0.0 | herbicidal effect rating, CYPSE (CYPSE (Flatsedge); 0.2500 kg/ha): 0.0 | Preemergence herbicidal rating CHEAL [2, 3]: 4.0 | Preemergence herbicidal rating CHEAL [2, 4]: 9.0 | Preemergence herbicidal rating CHEAL [2, 5]: 9.0 | Preemergence herbicidal rating CHEAL [2, 6]: 9.0

CCOC(=O)[C@H](Cc1ccccc1)N1C(=O)CSC1=Nc1cc(-n2c(=O)cc(C(F)(F)F)n(C)c2=O)c(F)cc1Cl [Compound 80, Ethyl α-benzyl-2-{{2-chloro-5-[3,6-dihydro-3-methyl-2,6-dioxo-4-(trifluoromethyl)-1(2H)-pyrimidinyl]-4-fluorophenyl}imino}-4-oxo-3-thiazolidineacetate, L-]
ECHCG herbicidal rating (ECHCG (Barnyardgrass); rate 0.0158 kg/ha): 1.0 | ECHCG herbicidal rating (ECHCG (Barnyardgrass); rate 0.0315 kg/ha): 2.0 | ECHCG herbicidal rating (ECHCG (Barnyardgrass); rate 0.0630 kg/ha): 3.0 | Preemergence herbicidal rating ORYSAT (ORYSAT (Rice, Tebonnet); rate 0.0156 kg/ha): 0.0 | Preemergence herbicidal rating ORYSAT (ORYSAT (Rice, Tebonnet); rate 0.0313 kg/ha): 0.0 | Preemergence herbicidal rating ORYSAT (ORYSAT (Rice, Tebonnet); rate 0.0625 kg/ha): 0.0 | Preemergence herbicidal rating ORYSAT (ORYSAT (Rice, Tebonnet); rate 0.1250 kg/ha): 1.0 | Preemergence herbicidal rating ORYSAT (ORYSAT (Rice, Tebonnet); rate 0.2500 kg/ha): 1.0 | ECHORC herbicidal effect rating ([1]; 0.0313 kg/ha): 9.0 | ECHORC herbicidal effect rating ([1]; 0.0625 kg/ha): 9.0 | ECHORC herbicidal effect rating ([1]; 0.1250 kg/ha): 9.0 | ECHORC herbicidal effect rating ([1]; 0.2500 kg/ha): 9.0 | CYPSE herbicidal effect rating (CYPSE (Flatsedge); 0.0313 kg/ha): 3.0 | CYPSE herbicidal effect rating (CYPSE (Flatsedge); 0.0625 kg/ha): 3.0 | CYPSE herbicidal effect rating (CYPSE (Flatsedge); 0.1250 kg/ha): 3.0 | CYPSE herbicidal effect rating (CYPSE (Flatsedge); 0.2500 kg/ha): 4.0 | Preemergence herbicidal rating CHEAL ([2]; rate 0.0156 kg/ha): 7.0 | Preemergence herbicidal rating CHEAL ([2]; rate 0.0313 kg/ha): 9.0 | Preemergence herbicidal rating CHEAL ([2]; rate 0.0625 kg/ha): 9.0 | Preemergence herbicidal rating CHEAL ([2]; rate 0.1250 kg/ha): 9.0 | Preemergence herbicidal rating CHEAL ([2]; rate 0.2500 kg/ha): 9.0

Cn1c(C(F)(F)F)cc(=O)n(-c2cc(N=C3SCC(=O)N3Cc3ccc(Cl)c(Cl)c3)c(Cl)cc2F)c1=O [Compound 144, 3-{4-Chloro-5-{[3-(3,4-dichlorobenzyl)-4-oxo-2-thiazolidinylidene]amino}-2-fluorophenyl}-1-methyl-6-(trifluoromethyl)-2,4(1H,3H)-pyrimidinedione]
Herbicidal rating ECHCG (ECHCG (Barnyardgrass); rate 0.0156 kg/ha): 2.0 | Herbicidal rating ECHCG (ECHCG (Barnyardgrass); rate 0.0313 kg/ha): 3.0 | Herbicidal rating ECHCG (ECHCG (Barnyardgrass); rate 0.0625 kg/ha): 4.0 | Preemergence herbicidal rating ORYSAT (ORYSAT (Rice, Tebonnet); [7]): 0.0 | Preemergence herbicidal rating ORYSAT (ORYSAT (Rice, Tebonnet); [3]): 0.0 | Preemergence herbicidal rating ORYSAT (ORYSAT (Rice, Tebonnet); [4]): 0.0 | Preemergence herbicidal rating ORYSAT (ORYSAT (Rice, Tebonnet); [5]): 0.0 | Preemergence herbicidal rating ORYSAT (ORYSAT (Rice, Tebonnet); [6]): 0.0 | herbicidal effect rating, ECHORC ([1]; 0.0313 kg/ha): 0.0 | herbicidal effect rating, ECHORC ([1]; 0.0625 kg/ha): 0.0 | herbicidal effect rating, ECHORC ([1]; 0.1250 kg/ha): 1.0 | herbicidal effect rating, ECHORC ([1]; 0.2500 kg/ha): 3.0 | herbicidal effect rating, CYPSE (CYPSE (Flatsedge); 0.0313 kg/ha): 7.0 | herbicidal effect rating, CYPSE (CYPSE (Flatsedge); 0.0625 kg/ha): 7.0 | herbicidal effect rating, CYPSE (CYPSE (Flatsedge); 0.1250 kg/ha): 9.0 | herbicidal effect rating, CYPSE (CYPSE (Flatsedge); 0.2500 kg/ha): 9.0 | Preemergence herbicidal rating CHEAL [2, 7]: 6.0 | Preemergence herbicidal rating CHEAL [2, 3]: 7.0 | Preemergence herbicidal rating CHEAL [2, 4]: 9.0 | Preemergence herbicidal rating CHEAL [2, 5]: 9.0 | Preemergence herbicidal rating CHEAL [2, 6]: 9.0

COC(=O)COC(=O)CN1C(=O)CSC1=Nc1cc(-n2c(=O)cc(C(F)(F)F)n(C)c2=O)c(F)cc1Cl [Compound 108, 2-{{2-Chloro-5-[3,6-dihydro-3-methyl-2,6-dioxo-4-(trifluoromethyl)-1(2H)-pyrimidinyl]-4-fluorophenyl}imino}-4-oxo-3-thiazolidineacetic acid, ester with methyl glycolate]
Herbicidal rating ECHCG (ECHCG (Barnyardgrass); rate 0.0158 kg/ha): 3.0 | Herbicidal rating ECHCG (ECHCG (Barnyardgrass); rate 0.0315 kg/ha): 4.0 | Herbicidal rating ECHCG (ECHCG (Barnyardgrass); rate 0.0630 kg/ha): 4.0 | Preemergence herbicidal rating ORYSAT (ORYSAT (Rice, Tebonnet); rate 0.0156 kg/ha): 0.0 | Preemergence herbicidal rating ORYSAT (ORYSAT (Rice, Tebonnet); rate 0.0313 kg/ha): 0.0 | Preemergence herbicidal rating ORYSAT (ORYSAT (Rice, Tebonnet); rate 0.0625 kg/ha): 0.0 | Preemergence herbicidal rating ORYSAT (ORYSAT (Rice, Tebonnet); rate 0.1250 kg/ha): 1.0 | Preemergence herbicidal rating ORYSAT (ORYSAT (Rice, Tebonnet); rate 0.2500 kg/ha): 5.0 | ECHORC herbicidal effect rating ([1]; 0.0313 kg/ha): 0.0 | ECHORC herbicidal effect rating ([1]; 0.0625 kg/ha): 0.0 | ECHORC herbicidal effect rating ([1]; 0.1250 kg/ha): 0.0 | ECHORC herbicidal effect rating ([1]; 0.2500 kg/ha): 0.0 | CYPSE herbicidal effect rating (CYPSE (Flatsedge); 0.0313 kg/ha): 0.0 | CYPSE herbicidal effect rating (CYPSE (Flatsedge); 0.0625 kg/ha): 0.0 | CYPSE herbicidal effect rating (CYPSE (Flatsedge); 0.1250 kg/ha): 0.0 | Preemergence herbicidal rating CHEAL ([2]; rate 0.0313 kg/ha): 0.0 | Preemergence herbicidal rating CHEAL ([2]; rate 0.0625 kg/ha): 9.0 | Preemergence herbicidal rating CHEAL ([2]; rate 0.1250 kg/ha): 9.0 | Preemergence herbicidal rating CHEAL ([2]; rate 0.2500 kg/ha): 9.0
